Test results reported in patent publication US10597388B2, “Pyridazinone herbicides” (FMC CORPORATION, priority 2014, dated 2020).

Key:
Format in all cases: in vivo
[1] = test system: blackgrass (Alopecurus myosuroides); assay: Test C greenhouse herbicide test, pre- and postemergence
Outline: (§1)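 Percent-control ratings (0 none, 100 complete) came from visual comparison with controls held alongside in the greenhouse for 13–15 d. Treatments covered soil application at sowing and foliar application to young plants 2–18 cm tall.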

[2] = test system: corn (Zea mays); assay: as above
Outline: as §1

[3] = test system: crabgrass, large (large crabgrass, Digitaria sanguinalis); assay: as above
Outline: as §1

[4] = test system: foxtail, giant (giant foxtail, Setaria faberii); assay: as above; details: Postemergence
Outline: as §1

[5] = test system: johnsongrass (Sorghum halepense); assay: as above
Outline: as §1

[6] = test system: lambsquarters (Chenopodium album); assay: as above
Outline: as §1

[7] = test system: morningglory (Ipomoea coccinea); assay: as above
Outline: as §1

[8] = test system: oilseed rape (Brassica napus); assay: as above
Outline: as §1

[9] = test system: pigweed (Amaranthus retroflexus); assay: as above
Outline: as §1

[10] = test system: ragweed (common ragweed, Ambrosia elatior); assay: as above
Outline: as §1

[11] = test system: ryegrass, Italian (Italian ryegrass, Lolium multiflorum); assay: as above
Outline: as §1

[12] = test system: soybean (Glycine max); assay: as above
Outline: as §1

[13] = test system: velvetleaf (Abutilon theophrasti); assay: as above
Outline: as §1

[14] = test system: waterhemp (common waterhemp, Amaranthus rudis); assay: as above
Outline: as §1

[15] = test system: kochia (Kochia scoparia); assay: Test C greenhouse herbicide test, postemergence; details: Postemergence
Outline: (§2)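 Ratings are visual scores from 0 (no effect) to 100 (complete control), made against controls 13–15 d after treatment. Postemergence sprays were applied in the greenhouse to plants 2–18 cm tall (1- to 4-leaf stage) in peat-moss/vermiculite potting medium.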

[16] = test system: oat, wild (wild oat, Avena fatua); assay: Test C greenhouse herbicide test, postemergence; details: Postemergence
Outline: as §2

[17] = Postemergence, 31 g ai/ha, scale 0 to 100 (0 no effect, 100 complete control)
[18] = Postemergence, 125 g ai/ha, scale 0 to 100, 0 is no effect, 100 is complete control
[19] = Postemergence, 250 g ai/ha, scale 0 to 100, 0 no effect, 100 complete control, 13 to 15 d
[20] = Preemergence, 31 g ai/ha, scale 0 to 100, 0 is no effect, 100 is complete control
[21] = Preemergence, 62 g ai/ha, scale 0 to 100, 0 is no effect, 100 is complete control
[22] = Preemergence, 125 g ai/ha, scale 0 to 100, 0 is no effect, 100 is complete control
[23] = Preemergence, 250 g ai/ha, scale 0 to 100 (0 no effect, 100 complete control)
[24] = postemergence, 62 g ai/ha, scale 0 to 100, 0 no effect, 100 complete control
[25] = 31 g ai/ha, scale 0 to 100 (0 no effect, 100 complete control)
[26] = 125 g ai/ha, scale 0 to 100, 0 is no effect, 100 is complete control
[27] = 250 g ai/ha, scale 0 to 100, 0 no effect, 100 complete control, 13 to 15 d

Cc1sc2ccc(Cl)cc2c1-c1c(OS(C)(=O)=O)c(Cl)nn(C)c1=O [Compound 114]
Plant response rating, Blackgrass [1, 17]: 0 | Plant response rating, Blackgrass [1, 18]: 5 | Plant response rating, Blackgrass [1, 19]: 15 | Plant response rating, Blackgrass [1, 20]: 0 | Plant response rating, Blackgrass [1, 21]: 5 | Plant response rating, Blackgrass [1, 22]: 5 | Blackgrass plant response rating [1, 23]: 10 | Blackgrass plant response rating [1, 24]: 0 | Plant response rating, Corn [2, 17]: 0 | Plant response rating, Corn [2, 18]: 0 | Plant response rating, Corn [2, 19]: 0 | Plant response rating, Corn [2, 20]: 0 | Plant response rating, Corn [2, 21]: 5 | Plant response rating, Corn [2, 22]: 5 | Corn plant response rating [2, 23]: 5 | Corn plant response rating [2, 24]: 0 | Plant response rating, Crabgrass, Large [3, 17]: 10 | Plant response rating, Crabgrass, Large [3, 18]: 20 | Plant response rating, Crabgrass, Large [3, 19]: 25 | Plant response rating, Crabgrass, Large [3, 20]: 0 | Plant response rating, Crabgrass, Large [3, 21]: 5 | Plant response rating, Crabgrass, Large [3, 22]: 75 | Crabgrass, Large plant response rating [3, 23]: 80 | Crabgrass, Large plant response rating [3, 24]: 20 | Plant response rating, Foxtail, Giant [4, 25]: 10 | Plant response rating, Foxtail, Giant [4, 26]: 50 | Plant response rating, Foxtail, Giant [4, 27]: 85 | Plant response rating, Johnsongrass [5, 17]: 5 | Plant response rating, Johnsongrass [5, 18]: 5 | Plant response rating, Johnsongrass [5, 19]: 15 | Plant response rating, Johnsongrass [5, 20]: 0 | Plant response rating, Johnsongrass [5, 21]: 0 | Plant response rating, Johnsongrass [5, 22]: 0 | Johnsongrass plant response rating [5, 23]: 0 | Plant response rating, Lambsquarters [6, 17]: 95 | Plant response rating, Lambsquarters [6, 18]: 100 | Plant response rating, Lambsquarters [6, 19]: 100 | Plant response rating, Lambsquarters [6, 20]: 90 | Plant response rating, Lambsquarters [6, 21]: 98 | Plant response rating, Lambsquarters [6, 22]: 90 | Lambsquarters plant response rating [6, 23]: 95 | Plant response rating, Morningglory [7, 17]: 95 | Plant response rating, Morningglory [7, 18]: 100 | Plant response rating, Morningglory [7, 19]: 100 | Plant response rating, Morningglory [7, 20]: 25 | Plant response rating, Morningglory [7, 21]: 55 | Plant response rating, Morningglory [7, 22]: 75 | Morningglory plant response rating [7, 23]: 90 | Plant response rating, Oilseed Rape [8, 17]: 15 | Plant response rating, Oilseed Rape [8, 18]: 40 | Plant response rating, Oilseed Rape [8, 19]: 80 | Plant response rating, Oilseed Rape [8, 20]: 30 | Plant response rating, Oilseed Rape [8, 21]: 98 | Plant response rating, Oilseed Rape [8, 22]: 100 | Oilseed Rape plant response rating [8, 23]: 100 | Plant response rating, Pigweed [9, 17]: 80 | Plant response rating, Pigweed [9, 18]: 95 | Plant response rating, Pigweed [9, 19]: 95 | Plant response rating, Pigweed [9, 20]: 98 | Plant response rating, Pigweed [9, 21]: 90 | Plant response rating, Pigweed [9, 22]: 100 | Pigweed plant response rating [9, 23]: 100 | Plant response rating, Ragweed [10, 17]: 90 | Plant response rating, Ragweed [10, 18]: 98 | Plant response rating, Ragweed [10, 19]: 100 | Plant response rating, Ragweed [10, 20]: 55 | Plant response rating, Ragweed [10, 21]: 75 | Plant response rating, Ragweed [10, 22]: 95 | Ragweed plant response rating [10, 23]: 98 | Plant response rating, Ryegrass, Italian [11, 17]: 60 | Plant response rating, Ryegrass, Italian [11, 18]: 80 | Plant response rating, Ryegrass, Italian [11, 19]: 95 | Plant response rating, Ryegrass, Italian [11, 20]: 40 | Plant response rating, Ryegrass, Italian [11, 21]: 85 | Plant response rating, Ryegrass, Italian [11, 22]: 90 | Ryegrass, Italian plant response rating [11, 23]: 95 | Plant response rating, Soybean [12, 17]: 0 | Plant response rating, Soybean [12, 18]: 0 | Plant response rating, Soybean [12, 19]: 5 | Plant response rating, Soybean [12, 20]: 0 | Plant response rating, Soybean [12, 21]: 0 | Plant response rating, Soybean [12, 22]: 20 | Plant response rating, Velvetleaf [13, 17]: 25 | Plant response rating, Velvetleaf [13, 18]: 55 | Plant response rating, Velvetleaf [13, 19]: 85 | Plant response rating, Velvetleaf [13, 20]: 45 | Plant response rating, Velvetleaf [13, 21]: 60 | Plant response rating, Velvetleaf [13, 22]: 85 | Velvetleaf plant response rating [13, 23]: 100 | Plant response rating, Waterhemp [14, 17]: 25 | Plant response rating, Waterhemp [14, 18]: 55 | Plant response rating, Waterhemp [14, 19]: 45 | Plant response rating, Waterhemp [14, 20]: 50 | Plant response rating, Waterhemp [14, 21]: 75 | Plant response rating, Waterhemp [14, 22]: 65 | Waterhemp plant response rating [14, 23]: 80 | Plant response rating, Kochia [15, 25]: 30 | Plant response rating, Kochia [15, 26]: 90 | Plant response rating, Kochia [15, 27]: 95 | Plant response rating, Oat, Wild [16, 25]: 40 | Plant response rating, Oat, Wild [16, 26]: 65 | Plant response rating, Oat, Wild [16, 27]: 85

Cc1nn(C)c(=O)c(-c2cc(F)cc3ccccc23)c1OS(C)(=O)=O [Compound 115]
Plant response rating, Blackgrass [1, 17]: 0 | Plant response rating, Blackgrass [1, 18]: 20 | Plant response rating, Blackgrass [1, 19]: 35 | Blackgrass plant response rating [1, 24]: 10 | Plant response rating, Corn [2, 17]: 5 | Plant response rating, Corn [2, 18]: 5 | Plant response rating, Corn [2, 19]: 15 | Corn plant response rating [2, 24]: 5 | Plant response rating, Crabgrass, Large [3, 17]: 10 | Plant response rating, Crabgrass, Large [3, 18]: 20 | Plant response rating, Crabgrass, Large [3, 19]: 25 | Crabgrass, Large plant response rating [3, 24]: 20 | Plant response rating, Foxtail, Giant [4, 25]: 5 | Plant response rating, Foxtail, Giant [4, 26]: 20 | Plant response rating, Foxtail, Giant [4, 27]: 35 | Plant response rating, Johnsongrass [5, 17]: 5 | Plant response rating, Johnsongrass [5, 18]: 10 | Plant response rating, Johnsongrass [5, 19]: 20 | Plant response rating, Lambsquarters [6, 17]: 70 | Plant response rating, Lambsquarters [6, 18]: 90 | Plant response rating, Lambsquarters [6, 19]: 98 | Plant response rating, Morningglory [7, 17]: 55 | Plant response rating, Morningglory [7, 18]: 95 | Plant response rating, Morningglory [7, 19]: 100 | Plant response rating, Oilseed Rape [8, 17]: 0 | Plant response rating, Oilseed Rape [8, 18]: 0 | Plant response rating, Oilseed Rape [8, 19]: 0 | Plant response rating, Pigweed [9, 17]: 30 | Plant response rating, Pigweed [9, 18]: 70 | Plant response rating, Pigweed [9, 19]: 90 | Plant response rating, Ragweed [10, 17]: 60 | Plant response rating, Ragweed [10, 18]: 95 | Plant response rating, Ragweed [10, 19]: 98 | Plant response rating, Ryegrass, Italian [11, 17]: 90 | Plant response rating, Ryegrass, Italian [11, 18]: 95 | Plant response rating, Ryegrass, Italian [11, 19]: 95 | Plant response rating, Soybean [12, 17]: 10 | Plant response rating, Soybean [12, 18]: 20 | Plant response rating, Soybean [12, 19]: 65 | Plant response rating, Velvetleaf [13, 17]: 15 | Plant response rating, Velvetleaf [13, 18]: 70 | Plant response rating, Velvetleaf [13, 19]: 65 | Plant response rating, Waterhemp [14, 17]: 65 | Plant response rating, Waterhemp [14, 18]: 90 | Plant response rating, Waterhemp [14, 19]: 90 | Plant response rating, Kochia [15, 25]: 70 | Plant response rating, Kochia [15, 26]: 90 | Plant response rating, Kochia [15, 27]: 90 | Plant response rating, Oat, Wild [16, 25]: 55 | Plant response rating, Oat, Wild [16, 26]: 80 | Plant response rating, Oat, Wild [16, 27]: 90

Cc1nn(C)c(=O)c(-c2ccc(F)c3ccccc23)c1OC(=O)CC(F)(F)F [Compound 123]
Plant response rating, Blackgrass [1, 17]: 15 | Plant response rating, Blackgrass [1, 18]: 45 | Plant response rating, Blackgrass [1, 19]: 45 | Blackgrass plant response rating [1, 24]: 35 | Plant response rating, Corn [2, 17]: 10 | Plant response rating, Corn [2, 18]: 20 | Plant response rating, Corn [2, 19]: 20 | Corn plant response rating [2, 24]: 15 | Plant response rating, Crabgrass, Large [3, 17]: 10 | Plant response rating, Crabgrass, Large [3, 18]: 30 | Plant response rating, Crabgrass, Large [3, 19]: 75 | Crabgrass, Large plant response rating [3, 24]: 35 | Plant response rating, Foxtail, Giant [4, 25]: 20 | Plant response rating, Foxtail, Giant [4, 26]: 35 | Plant response rating, Foxtail, Giant [4, 27]: 80 | Plant response rating, Johnsongrass [5, 17]: 5 | Plant response rating, Johnsongrass [5, 18]: 20 | Plant response rating, Johnsongrass [5, 19]: 25 | Plant response rating, Lambsquarters [6, 17]: 95 | Plant response rating, Lambsquarters [6, 18]: 100 | Plant response rating, Lambsquarters [6, 19]: 100 | Plant response rating, Morningglory [7, 17]: 95 | Plant response rating, Morningglory [7, 18]: 98 | Plant response rating, Morningglory [7, 19]: 100 | Plant response rating, Oilseed Rape [8, 17]: 0 | Plant response rating, Oilseed Rape [8, 18]: 0 | Plant response rating, Oilseed Rape [8, 19]: 5 | Plant response rating, Pigweed [9, 17]: 65 | Plant response rating, Pigweed [9, 18]: 80 | Plant response rating, Pigweed [9, 19]: 98 | Plant response rating, Ragweed [10, 17]: 75 | Plant response rating, Ragweed [10, 18]: 95 | Plant response rating, Ragweed [10, 19]: 98 | Plant response rating, Ryegrass, Italian [11, 17]: 90 | Plant response rating, Ryegrass, Italian [11, 18]: 90 | Plant response rating, Ryegrass, Italian [11, 19]: 95 | Plant response rating, Soybean [12, 17]: 10 | Plant response rating, Soybean [12, 18]: 20 | Plant response rating, Soybean [12, 19]: 65 | Plant response rating, Velvetleaf [13, 17]: 65 | Plant response rating, Velvetleaf [13, 18]: 85 | Plant response rating, Velvetleaf [13, 19]: 95 | Plant response rating, Waterhemp [14, 17]: 80 | Plant response rating, Waterhemp [14, 18]: 100 | Plant response rating, Waterhemp [14, 19]: 100 | Plant response rating, Kochia [15, 25]: 95 | Plant response rating, Kochia [15, 26]: 95 | Plant response rating, Kochia [15, 27]: 98 | Plant response rating, Oat, Wild [16, 25]: 70 | Plant response rating, Oat, Wild [16, 26]: 90 | Plant response rating, Oat, Wild [16, 27]: 95
